Reference: PubChem BioAssay AID2060330 (Molecular Pharmacology Branch, DTP, NCI, 2025)

System: LG0703-F948-PDC spheroids with HUVEC/MSC, viability
Assay: Anticancer human tumor LG0703-F948-PDC patient-derived lung adenocarcinoma cell line growth inhibition [IpAb]
Settings: for IC50: curve of first compound; for viability, T/C: stronger effect = lower value
How it was run: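 Multi-cell spheroids of 60% tumour cells, 25% HUVEC and 15% MSC in ultra-low-attachment U-bottom wells, treated with agents combined with ipatasertib or abemaciclib. Half-log ranges top out near clinical Cmax, or 10 microM when Cmax is unknown.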

[1] = second compound 0.1 µM, first compound 0.0316 µM
[2] = second compound 0.1 µM, first compound 0.1 µM
[3] = second compound 0.1 µM, first compound 0.316 µM
[4] = second compound 0.1 µM, first compound 1 µM
[5] = second compound 0.1 µM, first compound 3.16 µM
[6] = second compound 0.1 µM, first compound 10 µM
[7] = second compound 0.316 µM, first compound 0.0316 µM
[8] = second compound 0.316 µM, first compound 0.1 µM
[9] = second compound 0.316 µM, first compound 0.316 µM
[10] = second compound 0.316 µM, first compound 1 µM
[11] = second compound 0.316 µM, first compound 3.16 µM
[12] = second compound 0.316 µM, first compound 10 µM
[13] = second compound 1 µM, first compound 0.0316 µM
[14] = second compound 1 µM, first compound 0.1 µM
[15] = second compound 1 µM, first compound 0.316 µM
[16] = second compound 1 µM, first compound 1 µM
[17] = second compound 1 µM, first compound 3.16 µM
[18] = second compound 1 µM, first compound 10 µM
[19] = second compound 3.16 µM, first compound 0.0316 µM
[20] = second compound 3.16 µM, first compound 0.1 µM
[21] = second compound 3.16 µM, first compound 0.316 µM
[22] = second compound 3.16 µM, first compound 1 µM
[23] = second compound 3.16 µM, first compound 3.16 µM
[24] = second compound 3.16 µM, first compound 10 µM
[25] = second compound 10 µM, first compound 0.0316 µM
[26] = second compound 10 µM, first compound 0.1 µM
[27] = second compound 10 µM, first compound 0.316 µM
[28] = second compound 10 µM, first compound 1 µM
[29] = second compound 10 µM, first compound 3.16 µM
[30] = second compound 10 µM, first compound 10 µM
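Further: spheroids exposed to compounds for seven days before readout.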
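Wherever viability, T/C is given: T/C percent relative to DMSO vehicle wells set as 100% viability.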

C=CC(=O)N1CCN(c2nc(=O)n(-c3c(C)ccnc3C(C)C)c3nc(-c4c(O)cccc4F)c(F)cc23)C(C)C1 (stereo not given) + CC(C)NCC(C(=O)N1CCN(c2ncnc3c2C(C)CC3O)CC1)c1ccc(Cl)cc1
IC50 (second compound 0.1 µM): > 10000 nM
IC50 (second compound 0.316 µM): > 10000 nM
IC50 (second compound 1 µM): 3340 nM
IC50 (second compound 3.16 µM): < 31.6 nM
IC50 (second compound 10 µM): < 31.6 nM
viability, T/C [1]: 87.5%
viability, T/C [2]: 86.1%
viability, T/C [3]: 92.7%
viability, T/C [4]: 91.1%
viability, T/C [5]: 90.6%
viability, T/C [6]: 54.3%
viability, T/C [7]: 64.5%
viability, T/C [8]: 67.1%
viability, T/C [9]: 62.6%
viability, T/C [10]: 71.6%
viability, T/C [11]: 73.5%
viability, T/C [12]: 46.4%
viability, T/C [13]: 54.9%
viability, T/C [14]: 56.5%
viability, T/C [15]: 58%
viability, T/C [16]: 54.4%
viability, T/C [17]: 50.8%
viability, T/C [18]: 34.5%
viability, T/C [19]: 44.5%
viability, T/C [20]: 52.9%
viability, T/C [21]: 48.5%
viability, T/C [22]: 47%
viability, T/C [23]: 45.6%
viability, T/C [24]: 30.7%
viability, T/C [25]: 40%
viability, T/C [26]: 39%
viability, T/C [27]: 40.9%
viability, T/C [28]: 42.7%
viability, T/C [29]: 38.1%
viability, T/C [30]: 22.5%

CC(C)(C)c1cnc(CSc2cnc(NC(=O)C3CCNCC3)s2)o1 + CC(C)NCC(C(=O)N1CCN(c2ncnc3c2C(C)CC3O)CC1)c1ccc(Cl)cc1
IC50 (second compound 0.1 µM): 74.3 nM
IC50 (second compound 0.316 µM): 36.9 nM
IC50 (second compound 1 µM): 15.5 nM
IC50 (second compound 3.16 µM): < 9.49 nM
IC50 (second compound 10 µM): < 9.49 nM
viability, T/C (second compound 0.1 µM, first compound 0.00949 µM): 78.5%
viability, T/C (second compound 0.1 µM, first compound 0.03 µM): 74%
viability, T/C (second compound 0.1 µM, first compound 0.0949 µM): 43.3%
viability, T/C (second compound 0.1 µM, first compound 0.3 µM): 0.48%
viability, T/C (second compound 0.1 µM, first compound 0.949 µM): 0.41%
viability, T/C (second compound 0.1 µM, first compound 3 µM): 0.23%
viability, T/C (second compound 0.316 µM, first compound 0.00949 µM): 61.5%
viability, T/C (second compound 0.316 µM, first compound 0.03 µM): 51.2%
viability, T/C (second compound 0.316 µM, first compound 0.0949 µM): 30.8%
viability, T/C (second compound 0.316 µM, first compound 0.3 µM): 0.34%
viability, T/C (second compound 0.316 µM, first compound 0.949 µM): 0.3%
viability, T/C (second compound 0.316 µM, first compound 3 µM): 0.29%
viability, T/C (second compound 1 µM, first compound 0.00949 µM): 52%
viability, T/C (second compound 1 µM, first compound 0.03 µM): 47.5%
viability, T/C (second compound 1 µM, first compound 0.0949 µM): 24.2%
viability, T/C (second compound 1 µM, first compound 0.3 µM): 0.43%
viability, T/C (second compound 1 µM, first compound 0.949 µM): 0.34%
viability, T/C (second compound 1 µM, first compound 3 µM): 0.31%
viability, T/C (second compound 3.16 µM, first compound 0.00949 µM): 44.7%
viability, T/C (second compound 3.16 µM, first compound 0.03 µM): 37.4%
viability, T/C (second compound 3.16 µM, first compound 0.0949 µM): 15.4%
viability, T/C (second compound 3.16 µM, first compound 0.3 µM): 0.55%
viability, T/C (second compound 3.16 µM, first compound 0.949 µM): 1.3%
viability, T/C (second compound 3.16 µM, first compound 3 µM): 0.69%
viability, T/C (second compound 10 µM, first compound 0.00949 µM): 35.1%
viability, T/C (second compound 10 µM, first compound 0.03 µM): 31.5%
viability, T/C (second compound 10 µM, first compound 0.0949 µM): 28.2%
viability, T/C (second compound 10 µM, first compound 0.3 µM): 1.21%
viability, T/C (second compound 10 µM, first compound 0.949 µM): 0.81%
viability, T/C (second compound 10 µM, first compound 3 µM): 0.34%

Cn1ncc(Cl)c1-c1cc(C(=O)NC(CN)Cc2cccc(F)c2)sc1Cl (stereo not given) + CC(C)NCC(C(=O)N1CCN(c2ncnc3c2C(C)CC3O)CC1)c1ccc(Cl)cc1
IC50 (second compound 0.1 µM): 714 nM
IC50 (second compound 0.316 µM): 925 nM
IC50 (second compound 1 µM): 522 nM
IC50 (second compound 3.16 µM): < 31.6 nM
IC50 (second compound 10 µM): < 31.6 nM
viability, T/C [1]: 75.9%
viability, T/C [2]: 75.1%
viability, T/C [3]: 53.7%
viability, T/C [4]: 53.4%
viability, T/C [5]: 15.4%
viability, T/C [6]: 0.11%
viability, T/C [7]: 60%
viability, T/C [8]: 57.1%
viability, T/C [9]: 53.8%
viability, T/C [10]: 50.2%
viability, T/C [11]: 18.7%
viability, T/C [12]: 0.1%
viability, T/C [13]: 54.7%
viability, T/C [14]: 50.5%
viability, T/C [15]: 49.4%
viability, T/C [16]: 48.1%
viability, T/C [17]: 11%
viability, T/C [18]: 0.1%
viability, T/C [19]: 41.2%
viability, T/C [20]: 44.9%
viability, T/C [21]: 43.7%
viability, T/C [22]: 40.5%
viability, T/C [23]: 18.9%
viability, T/C [24]: 0.1%
viability, T/C [25]: 41.8%
viability, T/C [26]: 42.1%
viability, T/C [27]: 35%
viability, T/C [28]: 39.3%
viability, T/C [29]: 9.68%
viability, T/C [30]: 0.15%

Cn1nccc1Nc1nccc(-c2ccn(C(CO)c3ccc(Cl)c(F)c3)c(=O)c2)n1 (stereo not given) + CC(C)NCC(C(=O)N1CCN(c2ncnc3c2C(C)CC3O)CC1)c1ccc(Cl)cc1
IC50 (second compound 0.1 µM): 502 nM
IC50 (second compound 0.316 µM): 97 nM
IC50 (second compound 1 µM): < 31.6 nM
IC50 (second compound 3.16 µM): < 31.6 nM
IC50 (second compound 10 µM): < 31.6 nM
viability, T/C [1]: 67.3%
viability, T/C [2]: 66.3%
viability, T/C [3]: 49.8%
viability, T/C [4]: 39.7%
viability, T/C [5]: 50.3%
viability, T/C [6]: 37.6%
viability, T/C [7]: 64.7%
viability, T/C [8]: 49.4%
viability, T/C [9]: 36.5%
viability, T/C [10]: 28%
viability, T/C [11]: 32.5%
viability, T/C [12]: 27.1%
viability, T/C [13]: 45%
viability, T/C [14]: 39.8%
viability, T/C [15]: 21.7%
viability, T/C [16]: 15.3%
viability, T/C [17]: 12.3%
viability, T/C [18]: 16%
viability, T/C [19]: 38.2%
viability, T/C [20]: 33%
viability, T/C [21]: 16.4%
viability, T/C [22]: 9.61%
viability, T/C [23]: 9.49%
viability, T/C [24]: 5.88%
viability, T/C [25]: 32.5%
viability, T/C [26]: 22.6%
viability, T/C [27]: 29.5%
viability, T/C [28]: 6.93%
viability, T/C [29]: 4.16%
viability, T/C [30]: 3.23%

Cn1ncnc1[C@H]1c2n[nH]c(=O)c3cc(F)cc(c23)N[C@@H]1c1ccc(F)cc1 + CC(C)NCC(C(=O)N1CCN(c2ncnc3c2C(C)CC3O)CC1)c1ccc(Cl)cc1
IC50 (second compound 0.1 µM): > 100 nM
IC50 (second compound 0.316 µM): > 100 nM
IC50 (second compound 1 µM): > 100 nM
IC50 (second compound 3.16 µM): < 0.316 nM
IC50 (second compound 10 µM): < 0.316 nM
viability, T/C (second compound 0.1 µM, first compound 0.000316 µM): 91.9%
viability, T/C (second compound 0.1 µM, first compound 0.001 µM): 79.1%
viability, T/C (second compound 0.1 µM, first compound 0.00316 µM): 79.2%
viability, T/C (second compound 0.1 µM, first compound 0.01 µM): 91.9%
viability, T/C [1]: 68.6%
viability, T/C [2]: 73.4%
viability, T/C (second compound 0.316 µM, first compound 0.000316 µM): 73.5%
viability, T/C (second compound 0.316 µM, first compound 0.001 µM): 67.9%
viability, T/C (second compound 0.316 µM, first compound 0.00316 µM): 59.8%
viability, T/C (second compound 0.316 µM, first compound 0.01 µM): 65.7%
viability, T/C [7]: 63.6%
viability, T/C [8]: 58.3%
viability, T/C (second compound 1 µM, first compound 0.000316 µM): 60.1%
viability, T/C (second compound 1 µM, first compound 0.001 µM): 51.4%
viability, T/C (second compound 1 µM, first compound 0.00316 µM): 51%
viability, T/C (second compound 1 µM, first compound 0.01 µM): 53.5%
viability, T/C [13]: 60.3%
viability, T/C [14]: 51.9%
viability, T/C (second compound 3.16 µM, first compound 0.000316 µM): 47%
viability, T/C (second compound 3.16 µM, first compound 0.001 µM): 40.3%
viability, T/C (second compound 3.16 µM, first compound 0.00316 µM): 45.9%
viability, T/C (second compound 3.16 µM, first compound 0.01 µM): 42.9%
viability, T/C [19]: 49.5%
viability, T/C [20]: 46.1%
viability, T/C (second compound 10 µM, first compound 0.000316 µM): 42.8%
viability, T/C (second compound 10 µM, first compound 0.001 µM): 44.4%
viability, T/C (second compound 10 µM, first compound 0.00316 µM): 37.7%
viability, T/C (second compound 10 µM, first compound 0.01 µM): 45.9%
viability, T/C [25]: 38%
viability, T/C [26]: 37.2%
